# Experimental data published in PMC9750858, “Rapid biosensor development using plant hormone receptors as reprogrammable scaffolds” (Nature Biotechnology, 2022).
# Values joined by “and” are separate entries in the source; they are usually repeats but may differ in a detail not shown here. Equal entries are not always repeated.
# T1: PYR1^WIN-M (Arabidopsis thaliana, UniProt O49686, A160I/D26G/E4G/F159A/H60P/K59Q/N90S/Y23H)
# T1 construct: made in house
# T1 sequence (O49686 with tags, fused parts or gaps E4G/Y23H/D26G/K59Q/H60P/N90S/F159A/A160I): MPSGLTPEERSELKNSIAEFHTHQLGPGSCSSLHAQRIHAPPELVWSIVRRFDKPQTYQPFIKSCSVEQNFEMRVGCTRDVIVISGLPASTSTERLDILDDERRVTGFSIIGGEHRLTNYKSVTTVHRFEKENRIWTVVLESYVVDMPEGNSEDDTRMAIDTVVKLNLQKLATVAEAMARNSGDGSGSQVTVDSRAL
# Experiments:
# PYR1^WIN-M = molecular target: T1, PYR1^WIN-M; assay: ELISA-like plate assay, immobilized PYR1^WIN-M, biotinylated ΔN-HAB1^T+; format: binding; details: for ELISA signal generation, receptor cross-reactivity (source data): replicates; for LOD (lower limit of detection): fivefold dilution
# PYR1^PIRI = molecular target: T2, PYR1^PIRI (Arabidopsis thaliana, UniProt O49686, A160T/E130G/F159T/K59R/N119S/S122Q/S92M/V174A); assay: Split NanoLuc luciferase complementation in yeast, NLuc^N-PYR1^PIRI/NLuc^C-HAB1;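 for split luciferase luminescence (Fig. 4c source data): relative luminescence averaged over the signal plateau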; format: cell-based; details: replicates; for split luciferase luminescence (Fig. 4c source data): ligand pirimiphos-methyl
# T2 construct: >PYR1-PIRI; expressed in transfected cells; host or cells: Saccharomyces cerevisiae BY4742
# PYR1^DIAZI = PYR1^DIAZI (Arabidopsis thaliana, UniProt O49686, A160V/E8G/F108Y/F159G/L87M/M158V/V81Y); assay: Split NanoLuc luciferase complementation in yeast, NLuc^N-PYR1^DIAZI/NLuc^C-HAB1;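 for split luciferase luminescence (Fig. 4c source data): relative luminescence averaged over the signal plateau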; format: cell-based; set-up: >PYR1-DIAZI; expressed in transfected cells; host or cells: Saccharomyces cerevisiae BY4742; details: for Sensor signal (Figure 4f top), replicate values: 3 replicates; for split luciferase luminescence (Fig. 4c source data): ligand diazinon, replicates
# PYR1^DIAZI, sequence (Q9CAJ0 179-511): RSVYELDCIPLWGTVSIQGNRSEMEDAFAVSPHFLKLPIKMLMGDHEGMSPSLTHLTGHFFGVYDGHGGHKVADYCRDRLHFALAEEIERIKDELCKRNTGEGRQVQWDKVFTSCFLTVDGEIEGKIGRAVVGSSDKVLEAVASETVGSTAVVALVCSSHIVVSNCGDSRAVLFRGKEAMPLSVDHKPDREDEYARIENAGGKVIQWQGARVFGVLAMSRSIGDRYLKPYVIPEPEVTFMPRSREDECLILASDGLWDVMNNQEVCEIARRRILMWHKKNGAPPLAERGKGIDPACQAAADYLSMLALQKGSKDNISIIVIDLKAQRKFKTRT
# PYR1^DIAZI, sequence (O49686 other isoform, or with tags, fused parts or gaps E8G/V81Y/L87M/F108Y/M158V/F159G/A160V): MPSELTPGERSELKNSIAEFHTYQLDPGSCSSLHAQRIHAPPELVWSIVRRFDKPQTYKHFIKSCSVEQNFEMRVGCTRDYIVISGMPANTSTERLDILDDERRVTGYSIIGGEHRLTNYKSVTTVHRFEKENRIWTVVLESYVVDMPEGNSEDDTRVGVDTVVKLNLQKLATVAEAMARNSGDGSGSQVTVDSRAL
# T2 sequence (O49686 other isoform, or with tags, fused parts or gaps K59R/S92M/N119S/S122Q/E130G/F159T/A160T/V174A): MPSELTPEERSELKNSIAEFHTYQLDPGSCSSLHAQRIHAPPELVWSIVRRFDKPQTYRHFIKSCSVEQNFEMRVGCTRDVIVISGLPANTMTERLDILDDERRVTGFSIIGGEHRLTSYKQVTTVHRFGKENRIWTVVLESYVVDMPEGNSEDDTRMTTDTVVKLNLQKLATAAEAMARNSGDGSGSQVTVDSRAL
# T2 sequence (Q9CAJ0 179-511, further chain): as the sequence (Q9CAJ0 179-511) above
molecule,measurement,setting,value
C=C(C)[C@@H]1CCC(C)=C[C@H]1c1c(O)cc(CCCCC)cc1O [Cannabidiol],"ELISA signal generation, receptor cross-reactivity (source data)",PYR1^WIN-M; cannabinoid at 2 nM,0.109 and 0.094 and 0.096
same,"ELISA signal generation, receptor cross-reactivity (source data)",PYR1^WIN-M; cannabinoid at 2 μM,0.095 and 0.093 and 0.084
Cc1ccc(C(=O)c2cn(CCN3CCOCC3)c3ccccc23)c2ccccc12 [JWH-193],"ELISA signal generation, receptor cross-reactivity (source data)",PYR1^WIN-M; cannabinoid at 2 nM,0.065 and 0.104 and 0.068
same,"ELISA signal generation, receptor cross-reactivity (source data)",PYR1^WIN-M; cannabinoid at 2 μM,0.07 and 0.084 and 0.11
CCCCCn1cc(C(=O)Cc2ccccc2)c2ccccc21 [JWH-167],"ELISA signal generation, receptor cross-reactivity (source data)",PYR1^WIN-M; cannabinoid at 2 nM,0.146 and 0.078 and 0.09
same,"ELISA signal generation, receptor cross-reactivity (source data)",PYR1^WIN-M; cannabinoid at 2 μM,0.075 and 0.092 and 0.077
"O=C(Nc1cccc2cccnc12)c1cn(CCCCCF)c2ccccc12 [AM2201, AM2201 8-quinolinyl carboxamide]","ELISA signal generation, receptor cross-reactivity (source data)",PYR1^WIN-M; cannabinoid at 2 nM,0.169 and 0.127 and 0.144
same,"ELISA signal generation, receptor cross-reactivity (source data)",PYR1^WIN-M; cannabinoid at 2 μM,0.112 and 0.114 and 0.096
CCOP(=S)(OCC)Oc1ccc2c(C)c(Cl)c(=O)oc2c1 [Coumaphos],"Sensor signal (Figure 4f bottom), replicate values",PYR1^PIRI; [Agonist] 1e-5 nM,11.6429 and 18.6581 and 9.869
same,"Sensor signal (Figure 4f bottom), replicate values",PYR1^PIRI; [Agonist] 0.5 nM,10.5853 and 39.7892 and 9.475
same,"Sensor signal (Figure 4f bottom), replicate values",PYR1^PIRI; [Agonist] 1 nM,12.0486 and 19.9282 and 8.797
same,"Sensor signal (Figure 4f bottom), replicate values",PYR1^PIRI; [Agonist] 10 nM,7.164 and 12.4287 and 9.583
same,"Sensor signal (Figure 4f bottom), replicate values",PYR1^PIRI; [Agonist] 100 nM,8.8955 and 12.6369 and 17.1023
same,"Sensor signal (Figure 4f bottom), replicate values",PYR1^PIRI; [Agonist] 1000 nM,9.4868 and 11.2169 and 22.673
same,"Sensor signal (Figure 4f bottom), replicate values",PYR1^PIRI; [Agonist] 10000 nM,12.3815 and 19.3959 and 83.5281
same,"Sensor signal (Figure 4f bottom), replicate values",PYR1^PIRI; [Agonist] 100000 nM,9.584 and 13.286 and 71.6379
same,"Sensor signal (Figure 4f top), replicate values",PYR1^DIAZI; [Agonist] 1e-5 nM,16.388 and 9.752 and 14.788
same,"Sensor signal (Figure 4f top), replicate values",PYR1^DIAZI; [Agonist] 0.5 nM,30.8829 and 12.1724 and 17.852
same,"Sensor signal (Figure 4f top), replicate values",PYR1^DIAZI; [Agonist] 1 nM,36.8131 and 33.8683 and 15.2635
same,"Sensor signal (Figure 4f top), replicate values",PYR1^DIAZI; [Agonist] 10 nM,15.4966 and 64.9896 and 15.1391
same,"Sensor signal (Figure 4f top), replicate values",PYR1^DIAZI; [Agonist] 100 nM,12.996 and 65.6413 and 15.942
same,"Sensor signal (Figure 4f top), replicate values",PYR1^DIAZI; [Agonist] 1000 nM,21.5139 and 73.8437 and 25.5745
same,"Sensor signal (Figure 4f top), replicate values",PYR1^DIAZI; [Agonist] 10000 nM,81.7848 and 47.8146 and 79.9027
same,"Sensor signal (Figure 4f top), replicate values",PYR1^DIAZI; [Agonist] 100000 nM,105.044 and 22.805 and 29.2791
CCCCCn1cc(C(=O)N2CCN(C)CC2)c2ccccc21 [Mepirapim],"ELISA signal generation, receptor cross-reactivity (source data)",PYR1^WIN-M; cannabinoid at 2 nM,0.117 and 0.158 and 0.176
same,"ELISA signal generation, receptor cross-reactivity (source data)",PYR1^WIN-M; cannabinoid at 2 μM,0.111 and 0.116 and 0.103
"CCCCCc1cc(O)c2c(c1)OC(C)(C)[C@@H]1CCC(C)=C[C@@H]21 [Δ^9-THC, tetrahydrocannabinol]","ELISA signal generation, receptor cross-reactivity (source data)",PYR1^WIN-M; cannabinoid at 2 nM,0.105 and 0.137 and 0.097
same,"ELISA signal generation, receptor cross-reactivity (source data)",PYR1^WIN-M; cannabinoid at 2 μM,0.116 and 0.081 and 0.066
CCCc1ccc(C(=O)c2cn(CCC)c3ccccc23)c2ccccc12 [JWH-180],"ELISA signal generation, receptor cross-reactivity (source data)",PYR1^WIN-M; cannabinoid at 2 nM,0.104 and 0.071 and 0.083
same,"ELISA signal generation, receptor cross-reactivity (source data)",PYR1^WIN-M; cannabinoid at 2 μM,0.08 and 0.088 and 0.087
CCOP(=O)(OCC)Oc1ccc([N+](=O)[O-])cc1 [Paraoxon],"Sensor signal (Figure 4f bottom), replicate values",PYR1^PIRI; [Agonist] 1e-5 nM,11.9047 and 18.1515 and 10.4931
same,"Sensor signal (Figure 4f bottom), replicate values",PYR1^PIRI; [Agonist] 0.5 nM,11.0975 and 13.4157 and 8.837
same,"Sensor signal (Figure 4f bottom), replicate values",PYR1^PIRI; [Agonist] 1 nM,12.5918 and 18.7436 and 9.615
same,"Sensor signal (Figure 4f bottom), replicate values",PYR1^PIRI; [Agonist] 10 nM,11.1224 and 13.1225 and 9.775
same,"Sensor signal (Figure 4f bottom), replicate values",PYR1^PIRI; [Agonist] 100 nM,10.0591 and 11.6876 and 14.7625
same,"Sensor signal (Figure 4f bottom), replicate values",PYR1^PIRI; [Agonist] 1000 nM,10.1585 and 20.7126 and 25.0764
same,"Sensor signal (Figure 4f bottom), replicate values",PYR1^PIRI; [Agonist] 10000 nM,13.1804 and 18.2375 and 74.7884
same,"Sensor signal (Figure 4f bottom), replicate values",PYR1^PIRI; [Agonist] 100000 nM,12.8083 and 10.7531 and 85.8371
same,"Sensor signal (Figure 4f top), replicate values",PYR1^DIAZI; [Agonist] 1e-5 nM,10.8821 and 10.8818 and 16.2674
same,"Sensor signal (Figure 4f top), replicate values",PYR1^DIAZI; [Agonist] 0.5 nM,11.8181 and 17.5251 and 16.6639
same,"Sensor signal (Figure 4f top), replicate values",PYR1^DIAZI; [Agonist] 1 nM,24.3604 and 44.2392 and 23.2398
same,"Sensor signal (Figure 4f top), replicate values",PYR1^DIAZI; [Agonist] 10 nM,60.5829 and 64.6146 and 19.0156
same,"Sensor signal (Figure 4f top), replicate values",PYR1^DIAZI; [Agonist] 100 nM,14.8147 and 62.8846 and 19.484
same,"Sensor signal (Figure 4f top), replicate values",PYR1^DIAZI; [Agonist] 1000 nM,35.1388 and 74.2295 and 30.1748
same,"Sensor signal (Figure 4f top), replicate values",PYR1^DIAZI; [Agonist] 10000 nM,83.5675 and 57.6349 and 70.6242
same,"Sensor signal (Figure 4f top), replicate values",PYR1^DIAZI; [Agonist] 100000 nM,100.899 and 20.8486 and 98.4357
CCCCCn1cc(C(=O)c2cccc3ccccc23)cc1-c1ccccc1 [JWH-145],"ELISA signal generation, receptor cross-reactivity (source data)",PYR1^WIN-M; cannabinoid at 2 nM,0.469 and 0.077 and 0.091
same,"ELISA signal generation, receptor cross-reactivity (source data)",PYR1^WIN-M; cannabinoid at 2 μM,0.105 and 0.116 and 0.1
CCCCCn1cc(-c2nc(CN(CC)CC)cs2)c2ccccc21 [PTI-1],"ELISA signal generation, receptor cross-reactivity (source data)",PYR1^WIN-M; cannabinoid at 2 nM,0.097 and 0.112 and 0.193
same,"ELISA signal generation, receptor cross-reactivity (source data)",PYR1^WIN-M; cannabinoid at 2 μM,0.105 and 0.089 and 0.091
CCCCCn1cc(C(=O)c2cccc3ccccc23)cc1-c1ccccc1C [JWH-370],"ELISA signal generation, receptor cross-reactivity (source data)",PYR1^WIN-M; cannabinoid at 2 nM,0.069 and 0.076 and 0.063
same,"ELISA signal generation, receptor cross-reactivity (source data)",PYR1^WIN-M; cannabinoid at 2 μM,0.06 and 0.059 and 0.063
"PYR1-diazi: diazinon-responsive heptuple PYR1 mutant (E8G, V81Y, L87M, F108Y, M158V, F159G, A160V) (protein, left off: Gal4 DNA-binding domain (from the vector pBD), end not stated, kept) MPSELTPGERSELKNSIAEFHTYQLDPGSCSSLHAQRIHAPPELVWSIVRRFDKPQTYKHFIKSCSVEQNFEMRVGCTRDYIVISGMPANTSTERLDILDDERRVTGYSIIGGEHRLTNYKSVTTVHRFEKENRIWTVVLESYVVDMPEGNSEDDTRVGVDTVVKLNLQKLATVAEAMARNSGDGSGSQVT",split luciferase luminescence (Fig. 4c source data),PYR1^DIAZI; [Ligand] (uM) 0.01,2.821 and 4.017 and 3.928
same,split luciferase luminescence (Fig. 4c source data),PYR1^DIAZI; [Ligand] (uM) 0.1,3.172 and 4.215 and 4.029
same,split luciferase luminescence (Fig. 4c source data),PYR1^DIAZI; [Ligand] (uM) 1,4.479 and 4.68 and 4.503
same,split luciferase luminescence (Fig. 4c source data),PYR1^DIAZI; [Ligand] (uM) 10,10.058 and 10.652 and 11.029
same,split luciferase luminescence (Fig. 4c source data),PYR1^DIAZI; [Ligand] (uM) 100,21.801 and 16.912 and 16.034
same,split luciferase luminescence (Fig. 4c source data),PYR1^DIAZI; [Ligand] (uM) 1000,25.73 and 20.742 and 19.283
same,split luciferase luminescence (Fig. 4c source data),PYR1^DIAZI; [Ligand] (uM) 10000,25.492 and 21.692 and 23.422
"PYR1-pirimi: pirimiphos-responsive octuple PYR1 mutant (K59R, S92M, N119S, S122Q, E130G, F159T, A160T, V174A) (protein, UniProt O49686 1-191, looked up, variant K59R S92M N119S S122Q E130G F159T A160T V174A) Abscisic acid receptor PYR1: MPSELTPEERSELKNSIAEFHTYQLDPGSCSSLHAQRIHAPPELVWSIVRRFDKPQTYRHFIKSCSVEQNFEMRVGCTRDVIVISGLPANTMTERLDILDDERRVTGFSIIGGEHRLTSYKQVTTVHRFGKENRIWTVVLESYVVDMPEGNSEDDTRMTTDTVVKLNLQKLATAAEAMARNSGDGSGSQVT",split luciferase luminescence (Fig. 4c source data),PYR1^PIRI; [Ligand] 0.01,2.798 and 2.193 and 2.504
same,split luciferase luminescence (Fig. 4c source data),PYR1^PIRI; [Ligand] 0.1,2.824 and 1.934 and 2.89
same,split luciferase luminescence (Fig. 4c source data),PYR1^PIRI; [Ligand] 1,4.065 and 3.256 and 4.278
same,split luciferase luminescence (Fig. 4c source data),PYR1^PIRI; [Ligand] 10,10.289 and 6.672 and 8.183
same,split luciferase luminescence (Fig. 4c source data),PYR1^PIRI; [Ligand] 100,22.748 and 20.257 and 17.606
same,split luciferase luminescence (Fig. 4c source data),PYR1^PIRI; [Ligand] 1000,23.566 and 22.462 and 20.41
same,split luciferase luminescence (Fig. 4c source data),PYR1^PIRI; [Ligand] 10000,23.974 and 20.5 and 20.202
"PYR1^WIN-M: monomeric PYR1-WIN for ELISA: Y23H, D26G, K59Q, H60P, N90S, F159A, A160I (protein, UniProt O49686 1-191, looked up, variant Y23H D26G K59Q H60P N90S F159A A160I) Abscisic acid receptor PYR1: MPSELTPEERSELKNSIAEFHTHQLGPGSCSSLHAQRIHAPPELVWSIVRRFDKPQTYQPFIKSCSVEQNFEMRVGCTRDVIVISGLPASTSTERLDILDDERRVTGFSIIGGEHRLTNYKSVTTVHRFEKENRIWTVVLESYVVDMPEGNSEDDTRMAIDTVVKLNLQKLATVAEAMARNSGDGSGSQVT",LOD (lower limit of detection),PYR1^WIN-M; spiked blood serum,"1,105 pM"
same,LOD (lower limit of detection),PYR1^WIN-M; spiked saliva,305 pM
same,LOD (lower limit of detection),PYR1^WIN-M; spiked urine,515 pM
